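Cultured in 96-well plates, cells were exposed to test compound for 48 hours across five concentrations. GI50 = concentration required for 50% inhibition of growth. Definition used: TGI = concentration required for complete inhibition of growth.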

Among the test systems are ACHN renal; CCRF-CEM leukemia; LOX IMVI melanoma; OVCAR-8 ovarian; RPMI-8226 leukemia; SF-295 CNS; SW-620 colon; UACC-257 melanoma.
What all share (test): NCI tumour cell line growth inhibition, 48 h

Consider `NCCCCN(Cc1nc2ccccc2[nH]1)[C@H]1CCCc2cccnc21`, for which the GI50 with ACHN renal was 26.3 µM; in the assay with CCRF-CEM leukemia it was 7.06 µM; in the assay with LOX IMVI melanoma, 12 µM; with OVCAR-8 ovarian it was 20 µM; in the assay on RPMI-8226 leukemia, 12 µM; with SF-295 CNS, 12.8 µM. Further, the GI50 was 12.6 µM in the assay with SW-620 colon and 15.3 µM in the assay with UACC-257 melanoma. Also, the TGI was more than 100 µM in the assay with ACHN renal; 56.3 µM with CCRF-CEM leukemia; 38.2 µM in the assay on LOX IMVI melanoma; more than 100 µM with OVCAR-8 ovarian; 47.6 µM in the assay with RPMI-8226 leukemia; 30.7 µM in the assay on SF-295 CNS. The results for the TGI in the assay on SW-620 colon and in the assay on UACC-257 melanoma were more than 100 µM and 31.4 µM, respectively.

On to `CC(C)CCc1c(Cl)nc(Cl)nc1Cl`, for which the TGI is 92.3 µM in the assay with ACHN renal; more than 100 µM with CCRF-CEM leukemia; 11.8 µM in the assay with LOX IMVI melanoma; more than 100 µM in the assay on RPMI-8226 leukemia; 34.4 µM with SF-295 CNS; more than 100 µM in the assay with SW-620 colon. Moreover, the TGI in the assay with UACC-257 melanoma amounted to 34 µM.

As for `COc1ccc(/C=C/C(=O)c2cc3c(N)c(C(=O)Nc4ccccc4)sc3nc2C)cc1`, the GI50 with ACHN renal is 0.344 µM; in the assay on CCRF-CEM leukemia, 0.184 µM; in the assay on LOX IMVI melanoma, 0.332 µM; in the assay with OVCAR-8 ovarian it was 0.277 µM; in the assay on RPMI-8226 leukemia, 0.34 µM; in the assay with SF-295 CNS, 0.232 µM. The GI50 with SW-620 colon was 0.216 µM; with UACC-257 melanoma, 18 µM. Moreover, the TGI in the assay on ACHN renal was more than 23 µM; with CCRF-CEM leukemia it was more than 28.7 µM; with LOX IMVI melanoma it was 2.77 µM; in the assay with OVCAR-8 ovarian, more than 50 µM; with RPMI-8226 leukemia, more than 10.8 µM; with SF-295 CNS, more than 50 µM. The TGI in the assay on SW-620 colon is 11.7 µM; in the assay on UACC-257 melanoma, more than 50 µM.

In the case of `C=C1C(=O)O[C@H]2[C@H]1CC/C(CNS(=O)(=O)c1cccc3ccccc13)=C\CC[C@@]1(C)O[C@@H]21`, the GI50 in the assay on ACHN renal was 1.19 µM; with CCRF-CEM leukemia, 0.624 µM; in the assay with LOX IMVI melanoma, 1.45 µM; with OVCAR-8 ovarian, 2.52 µM; in the assay with RPMI-8226 leukemia it was 1.58 µM; in the assay with SF-295 CNS, 5.49 µM. Besides, the figures for the GI50 in the assay on SW-620 colon and with UACC-257 melanoma were 0.713 µM and 1.64 µM, respectively. Besides, the TGI was determined as 2.56 µM with ACHN renal; 3.82 µM in the assay with CCRF-CEM leukemia; 2.93 µM in the assay with LOX IMVI melanoma; 9.16 µM in the assay with OVCAR-8 ovarian; 4.43 µM in the assay on RPMI-8226 leukemia; 19.2 µM in the assay on SF-295 CNS. Moreover, the TGI in the assay on SW-620 colon came out at 2.26 µM; in the assay on UACC-257 melanoma, 3.89 µM.

With `Clc1nc(Cl)c(Cc2ccccc2)c(Cl)n1`, the TGI in the assay on ACHN renal was 32 µM; with CCRF-CEM leukemia it was more than 100 µM; with LOX IMVI melanoma it was more than 100 µM; with OVCAR-8 ovarian, 19 µM; in the assay with RPMI-8226 leukemia it was more than 100 µM; with SF-295 CNS, 32 µM. This molecule also showed a TGI in the assay with SW-620 colon of more than 100 µM.

`O=C1C(=O)c2ccccc2C(O)=C1CCCCCCCCC1CCCCC1`: the TGI in the assay with ACHN renal is 15.6 µM; in the assay with CCRF-CEM leukemia, 13.6 µM; in the assay on LOX IMVI melanoma, 15.8 µM; in the assay with OVCAR-8 ovarian, 29.5 µM; in the assay on RPMI-8226 leukemia, 56.7 µM; with SW-620 colon it was 17.7 µM. For the same molecule, the TGI with UACC-257 melanoma was determined as 72.8 µM.

For the molecule `COC(=O)c1cc2oc(/C=C3\SC(=S)N(NC(C)=O)C3=O)cc2n1Cc1ccccc1`, the GI50 in the assay on ACHN renal was 3.68 µM; in the assay on LOX IMVI melanoma, 0.769 µM; in the assay with OVCAR-8 ovarian, 2.68 µM; with RPMI-8226 leukemia, 0.758 µM; with SF-295 CNS it was 2.11 µM; with SW-620 colon, 8.35 µM. The GI50 in the assay on UACC-257 melanoma is 5.69 µM. The TGI came to 10.5 µM in the assay on ACHN renal; 1.6 µM in the assay with LOX IMVI melanoma; 19.4 µM in the assay on OVCAR-8 ovarian; 5.55 µM in the assay with RPMI-8226 leukemia; 15.6 µM with SF-295 CNS; 39 µM in the assay on SW-620 colon. Moreover, the TGI in the assay with UACC-257 melanoma is 16.4 µM.

Regarding `CC(=O)c1c[nH]cc1CO`, the TGI with ACHN renal, with CCRF-CEM leukemia, with LOX IMVI melanoma, with OVCAR-8 ovarian, in the assay on RPMI-8226 leukemia and with SF-295 CNS was more than 10 µM in each case. The molecule further returned a TGI with SW-620 colon of more than 10 µM.

`O=C1/C(=C/c2ccc(Cl)cc2)COc2ccc(O)c(O)c21`: the GI50 in the assay on ACHN renal is 1.14 µM; with LOX IMVI melanoma, 0.33 µM; in the assay on OVCAR-8 ovarian it was 1.11 µM; in the assay on RPMI-8226 leukemia, 0.2 µM; in the assay with SF-295 CNS it was 3.37 µM; with SW-620 colon it was 0.838 µM. Besides, in the assay with UACC-257 melanoma, the GI50 was 1.65 µM. For the same molecule, the TGI amounted to 2.36 µM with ACHN renal; 1.36 µM in the assay on LOX IMVI melanoma; 12.8 µM with OVCAR-8 ovarian; 0.512 µM in the assay on RPMI-8226 leukemia; 13.2 µM with SF-295 CNS; 2.94 µM in the assay on SW-620 colon. The molecule further showed a TGI in the assay on UACC-257 melanoma of 3.88 µM.

Turning to `N=C(N)c1ccc(-c2ccc(-c3cccs3)s2)nc1`, the GI50 was 1.76 µM in the assay with ACHN renal; 1.78 µM in the assay on CCRF-CEM leukemia; 1.59 µM with OVCAR-8 ovarian; 0.434 µM with RPMI-8226 leukemia; 1.85 µM with SW-620 colon; 1.74 µM with UACC-257 melanoma. Further, the TGI amounted to 3.33 µM with ACHN renal; 4.19 µM in the assay with CCRF-CEM leukemia; 4.06 µM with OVCAR-8 ovarian; 2.78 µM with RPMI-8226 leukemia; 3.93 µM in the assay on SW-620 colon; 3.5 µM in the assay on UACC-257 melanoma.

With `CSC1C(=O)c2ccccc2/C(=N/Nc2nc3ccccc3s2)C1C` (centres undefined), the GI50 with ACHN renal is 5.65 µM; in the assay on LOX IMVI melanoma, 5.62 µM; in the assay on OVCAR-8 ovarian it was 10.7 µM; in the assay on RPMI-8226 leukemia it was 7.44 µM; with SF-295 CNS, 19.7 µM; in the assay with SW-620 colon it was 12.9 µM. Moreover, the GI50 in the assay on UACC-257 melanoma was 8.87 µM. The TGI is 11.7 µM in the assay on ACHN renal; 11.6 µM in the assay with LOX IMVI melanoma; 28.6 µM in the assay with OVCAR-8 ovarian; more than 50 µM with RPMI-8226 leukemia; more than 50 µM in the assay with SF-295 CNS; 34.1 µM in the assay with SW-620 colon. Also, the TGI in the assay on UACC-257 melanoma is 18.9 µM.

For the molecule `N#C[S-].[Au+].c1ccc(CN2[CH-]N(Cc3ccccc3)C(c3ccccc3)=C2c2ccccc2)cc1`, in the assay on SW-620 colon, the GI50 is 0.421 µM and the TGI was found to be 2.99 µM.

With `Cc1nn(-c2nc3ccccc3[nH]2)c2c1C(c1ccc3c(c1)OCO3)CC(=O)N2` (centres undefined), the GI50 in the assay with ACHN renal is 4.07 µM; in the assay on CCRF-CEM leukemia it was 1.94 µM; in the assay with OVCAR-8 ovarian, 3.51 µM; in the assay on RPMI-8226 leukemia, 2.22 µM; in the assay on SF-295 CNS, 1.81 µM; with SW-620 colon, 2.86 µM. The GI50 with UACC-257 melanoma is 2.41 µM. In addition, the TGI is more than 100 µM in the assay with ACHN renal; more than 24.7 µM in the assay on CCRF-CEM leukemia; more than 100 µM in the assay on OVCAR-8 ovarian; 5.02 µM in the assay on RPMI-8226 leukemia; 4.38 µM in the assay with SF-295 CNS; 9.63 µM with SW-620 colon. Further, the TGI with UACC-257 melanoma amounted to 6.96 µM.

With `CN1CCn2c(c(Sc3ccc(C(=O)NO)cc3)c3ccccc32)C1=O`, the GI50 in the assay with ACHN renal was 2.63 µM; with CCRF-CEM leukemia, 1.23 µM; in the assay on LOX IMVI melanoma, 1.78 µM; in the assay with OVCAR-8 ovarian it was 1.92 µM; with RPMI-8226 leukemia, 1.24 µM; with SW-620 colon it was 1.86 µM. The GI50 in the assay on UACC-257 melanoma was 1.51 µM. The TGI in the assay with ACHN renal is 8.72 µM; with CCRF-CEM leukemia, more than 27.8 µM; in the assay on LOX IMVI melanoma it was 3.66 µM; in the assay on OVCAR-8 ovarian, 6.71 µM; in the assay with RPMI-8226 leukemia it was more than 24.5 µM; with SW-620 colon, 5.14 µM. Besides, the TGI in the assay with UACC-257 melanoma stood at 3.56 µM.

Consider `O=C(CN1C(=O)c2ccccc2C1=O)C(O)CN1C(=O)c2ccccc2C1=O` (centres undefined), for which the TGI in the assay on ACHN renal is 49.3 µM; with LOX IMVI melanoma, more than 100 µM; with OVCAR-8 ovarian, more than 100 µM; with RPMI-8226 leukemia, more than 100 µM; in the assay with SF-295 CNS, 99.8 µM; in the assay with SW-620 colon, more than 100 µM. In the assay on UACC-257 melanoma, this molecule gave a TGI of more than 100 µM.

Turning to `Oc1c(N=Nc2ccccc2)c2ccccc2c2ccc3ccccc3c12`, the TGI in the assay with ACHN renal, with CCRF-CEM leukemia, in the assay on OVCAR-8 ovarian, in the assay with RPMI-8226 leukemia, with SF-295 CNS and with SW-620 colon was more than 100 µM in each case. In the assay with UACC-257 melanoma, this molecule gave a TGI of more than 100 µM.

Take `S=C(Nc1ccccc1)N(Cc1ccccc1)c1ccccc1`: the TGI in the assay on ACHN renal, with CCRF-CEM leukemia, in the assay on LOX IMVI melanoma, in the assay on RPMI-8226 leukemia, with SF-295 CNS and with SW-620 colon was more than 100 µM in each case. Moreover, the TGI with UACC-257 melanoma amounted to 54.6 µM.

Regarding `CN(C)CCNC(=O)c1cc2c3ccccc3[nH]c2c2ncccc12`, the GI50 with ACHN renal was 4.24 µM; in the assay on CCRF-CEM leukemia, 3.46 µM; in the assay on LOX IMVI melanoma it was 4.14 µM; in the assay on OVCAR-8 ovarian, 6.11 µM; in the assay on RPMI-8226 leukemia, 6.01 µM; with SW-620 colon, 4.24 µM. Further, in the assay on UACC-257 melanoma, the GI50 was 10.4 µM. The TGI is 28 µM in the assay with ACHN renal; 15.8 µM in the assay on CCRF-CEM leukemia; 17.5 µM in the assay on LOX IMVI melanoma; 40.9 µM in the assay on OVCAR-8 ovarian; 22.7 µM with RPMI-8226 leukemia; 24.9 µM in the assay with SW-620 colon. The TGI with UACC-257 melanoma worked out at 88.1 µM.

Regarding `COc1cc([N+](=O)[O-])c(OC)cc1-c1nc2sc(Cl)cn2c1/C=N/NC(=N)N/N=C/c1c(-c2cc(OC)c([N+](=O)[O-])cc2OC)nc2sc(Cl)cn12`, the GI50 was 2.23 µM with ACHN renal and 1.85 µM in the assay on SW-620 colon. Further, the TGI in the assay on ACHN renal was determined as 4.88 µM; in the assay on SW-620 colon it was 3.55 µM.

For the origin of these results see PubChem BioAssay (NCI).
